Test results from ChEMBL document CHEMBL4118092, “Synthesis and Activity of a New Series of Antileishmanial Agents” (ACS Med Chem Lett, 2017).
pIC50: −log10 of the molar value.

What was measured:
J774.A1 = experiment: Cytotoxicity against mouse J774.A1 cells after 72 hrs by MTS assay; type: cell-based; conditions: J774.A1, 72 h
Leishmania donovani [1] = experiment: Antileishmanial activity against Leishmania donovani axenic amastigotes after 72 hrs by CellTiter reagent based assay; type: functional, organism-based
Leishmania donovani [2] = experiment: Antileishmanial activity against Leishmania donovani axenic amastigotes infected in mouse J774 cells after 72 hrs by Draq5 staining based assay; type: functional, organism-based; conditions: J774, 72 h
[3] = Kinetic solubility of the compound in pH 7.4 PBS buffer; type: physicochemical; conditions: read-out: Kinetic_solubility

| SMILES | pIC50 (Leishmania donovani [2]) | solubility kinetic [3] | pIC50 (J774.A1) | pIC50 (Leishmania donovani [1]) |
| --- | --- | --- | --- | --- |
| COCCCNc1cc(-n2nc(C)c3c2CN(C(N)=O)CC3=O)ccc1C(N)=O | < 5.00 | – | < 4.30 | < 4.70 |
| COCCCNc1cc(-n2nc(C)c3c2CN(C(=O)NCc2ccccc2)CC3=O)ccc1C(N)=O | < 5.00 | – | < 4.30 | < 4.70 |
| COCCCNc1cc(-n2nc(C)c3c2CN(S(C)(=O)=O)CC3=O)ccc1C(N)=O | 5.27 | – | 4.59 | < 4.70 |
| COCCCNc1cc(-n2nc(C)c3c2CN(C(=O)C(C)C)CC3=O)ccc1C(N)=O | 5.45 | – | 4.43 | 5.72 |
| COCCCNc1cc(-n2nc(C)c3c2CN(C(=O)COC)CC3=O)ccc1C(N)=O | 5.45 | – | < 4.30 | 5.35 |
| COCCCNc1cc(-n2nc(C)c3c2CN(C(=O)C2CCCC2)CC3=O)ccc1C(N)=O | 5.82 | – | < 4.30 | 5.52 |
| COCCCNc1cc(-n2nc(C)c3c2CN(C(=O)c2ccc(C)cc2)CC3=O)ccc1C(N)=O | 5.76 | – | 4.58 | 5.59 |
| COCCCNc1cc(-n2nc(C)c3c2CN(Cc2ccccc2)CC3=O)ccc1C(N)=O | 5.20 | – | < 4.30 | 5.64 |
| C[C@@H]1C[C@H]2O[C@@H]2/C=C\C=C\C(=O)Cc2c(Cl)c(O)cc(O)c2C(=O)O1 [RADICICOL] | 6.54 | – | 5.63 | 6.21 |
| COCCCNc1cc(-n2nc(C)c3c2CCCC3=O)ccc1C(N)=O | < 5.00 | – | < 4.30 | < 4.60 |
| CCC(=O)N1CC(=O)c2c(C)nn(-c3ccc(C(N)=O)c(NCCCOC)c3)c2C1 | 5.45 | – | < 4.30 | 5.19 |
| COCCCNc1cc(-n2nc(C)c3c2CNCC3=O)ccc1C(N)=O | < 5.00 | – | < 4.30 | 5.41 |

More lines, in order of rising pIC50 (Leishmania donovani [2]), values ahead:

| pIC50 (Leishmania donovani [2]) | solubility kinetic [3] | SMILES | pIC50 (J774.A1) | pIC50 (Leishmania donovani [1]) |
| --- | --- | --- | --- | --- |
| 5.84 | – | CCCCCCCCCCCCCCCCOP(=O)([O-])OCC[N+](C)(C)C [MILTEFOSINE] | < 4.30 | 5.49 |
| 5.88 | – | Cc1nn(-c2ccc3c(N)ncnc3c2)c2c1C(=O)CC(C)(C)C2 | < 4.30 | 5.62 |
| 5.97 | > 490 µM | COCCCNc1cc(-n2nc(C)c3c2CN(C(C)=O)CC3=O)ccc1C(N)=O | < 4.30 | 4.86 |
| 6.06 | – | COCCCNc1cc(-n2nc(C)c3c2CC(C)(C)CC3=O)ccc1C(N)=O | 5.45 | 6.19 |
| 6.21 | – | CC1(C)CC(=O)c2c(C(F)(F)F)nn(-c3ccc(C(N)=O)c(N[C@H]4CC[C@H](O)CC4)c3)c2C1 [SNX-2112] | > 7.22 | 6.38 |
